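1) Cells in 96-well plates. 2) Compound, 48 h, 5 concentrations. 3) Linear interpolation between surrounding doses. 4) Unreached endpoint = highest concentration. TGI denotes the concentration required for complete inhibition of growth.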
Legend:
Assay in all cases: NCI tumour cell line growth inhibition, 48 h
BT-549 breast = tested on: BT-549 breast
COLO 205 colon = tested on: COLO 205 colon
HCC-2998 colon = tested on: HCC-2998 colon
HCT-15 colon = tested on: HCT-15 colon
HOP-92 NSCLC = tested on: HOP-92 NSCLC
IGROV1 ovarian = tested on: IGROV1 ovarian
K-562 leukemia = tested on: K-562 leukemia
KM12 colon = tested on: KM12 colon
NCI-H226 lung = tested on: NCI-H226 lung
OVCAR-4 ovarian = tested on: OVCAR-4 ovarian
RPMI-8226 leukemia = tested on: RPMI-8226 leukemia
SK-MEL-5 melanoma = tested on: SK-MEL-5 melanoma
UACC-257 melanoma = tested on: UACC-257 melanoma
UO-31 renal = tested on: UO-31 renal

Row | SMILES | TGI (BT-549 breast) [µM] | TGI (COLO 205 colon) [µM] | TGI (HCC-2998 colon) [µM] | TGI (HCT-15 colon) [µM] | TGI (HOP-92 NSCLC) [µM] | TGI (IGROV1 ovarian) [µM] | TGI (K-562 leukemia) [µM] | TGI (KM12 colon) [µM] | TGI (NCI-H226 lung) [µM] | TGI (OVCAR-4 ovarian) [µM] | TGI (RPMI-8226 leukemia) [µM] | TGI (SK-MEL-5 melanoma) [µM] | TGI (UACC-257 melanoma) [µM] | TGI (UO-31 renal) [µM]
1 | CC(C)(C)NC(=O)/C(=C\Sc1ccccc1)c1ccccc1 | > 100 | > 100 | > 100 | > 100 | > 42.4 | > 100 | > 100 | > 100 | > 100 | > 100 | > 100 | > 100 | > 100 | > 100
2 | C=C(C)[C@H]1C2=CC(C)=C(O2)[C@@H](O)[C@H](C(=C)C)CCC2=C[C@H]1OC2=O | > 100 | > 100 | > 100 | > 100 | > 100 | > 100 | > 100 | > 100 | > 100 | > 100 | > 100 | > 100 | > 100 | > 100
3 | CCOC(=O)/C=C(\C(=O)OCC)n1cc(Cl)c(=O)n(CC(=O)OCC)c1=O | 35.5 | 1.86 | 37.5 | 13.4 | 5.28 | 25.9 | 4.23 | 34.9 | 31.7 | 41.2 | 4.58 | 29.1 | 10.2 | 3.27
4 | CCCCc1ccc(Nc2nc(Cl)c3c(ncn3C3CC(Oc4ccc(C)cc4)C(COc4ccc(C)cc4)O3)n2)cc1 (stereo unspecified) | > 100 | > 100 | > 100 | > 100 | > 100 | > 100 | > 100 | > 100 | > 100 | > 100 | > 100 | > 100 | > 100 | > 100
5 | COc1ccc2c(c1)NC1(CCN(CCCC(=O)c3ccc(F)cc3)CC1)N=N2 | 74.7 | 27.8 | 28.2 | 52.4 | > 100 | 64 | 41 | 41 | 95.6 | > 100 | 42.2 | 25.3 | 46.1 | 57.8
6 | COC(=O)C1=C(O)CCCC(C2CCCCC(=O)C2C(=O)OC)=C1 (stereo unspecified) | > 100 | > 100 | 91.6 | > 100 | > 100 | > 100 | > 100 | > 100 | > 100 | > 100 | > 100 | > 100 | > 100 | > 100
7 | CN(C)CCNC(=O)c1cccc2nc3c(C(=O)NCCN(C)C)cccc3nc12 | 15.9 | 1.87 | 4.12 | 16.5 | 7.83 | > 23.3 | 12.5 | 8.82 | 5.66 | 2.24 | > 23.6 | 3.02 | 4.08 | 34.1
8 | N/C(=N\Nc1ccc(Cl)cc1)c1cnccn1 | > 100 | 40.1 | 79.1 | > 100 | > 100 | > 100 | > 100 | > 100 | > 100 | > 100 | > 100 | 54.6 | > 100 | > 100
9 | O=C(O)c1c2c(cc3c1CC1(Cc4cc5c(cc4C1=O)CCC5)C3)CCC2 (stereo unspecified) | > 100 | > 100 | > 100 | > 100 | > 100 | > 100 | > 100 | > 100 | > 100 | > 100 | > 100 | > 100 | > 100 | > 100
10 | Cc1nc2ccc(F)cc2c(Cl)c1CCCl | > 100 | 47.2 | 84.9 | > 100 | > 100 | > 100 | 68.2 | > 100 | > 100 | > 100 | > 100 | 52.7 | > 100 | > 100
11 | Cc1ccc(S(=O)(=O)N/N=C2\CC3CC4CCC2C4C3)cc1 (stereo unspecified) | > 100 | > 100 | > 100 | > 100 | > 100 | > 100 | > 100 | > 100 | > 100 | > 100 | > 100 | > 100 | > 100 | > 100
12 | COC(=O)[C@]1(c2cc3ccccc3[nH]2)CC2CN(C(=O)OCc3ccccc3)C1CC2=O (stereo partly specified) | 95.5 | 30.1 | > 100 | > 100 | 87.8 | > 100 | 45.1 | > 100 | 63.4 | > 100 | 38.9 | 34.5 | > 100 | > 100
13 | O=c1[nH]nc(Cc2ccccc2)n1/N=C/c1cccnc1 | > 100 | > 100 | > 100 | > 100 | > 100 | > 100 | > 100 | > 100 | > 100 | > 100 | > 100 | > 100 | > 100 | > 100
14 | CCCCc1ccc(Nc2nc(Cl)c3ccn(C4CC(Oc5ccc(C)cc5)C(COc5ccc(C)cc5)O4)c3n2)cc1 (stereo unspecified) | 17.3 | > 46.4 | > 46.4 | > 46.4 | > 46.4 | 29.5 | > 46.4 | > 46.4 | > 46.4 | > 31.6 | > 46.4 | > 46.4 | 31.5 | 31.2
